From ChEMBL document CHEMBL1149049, “Increased feline cerebral blood flow induced by dehydroevodiamine hydrochloride from Evodia rutaecarpa” (J Nat Prod, 1994)
Activity calls are given as the source filed them. No cut-off for these calls is given here.

Tested on: Felis catus
Experiment: Increase in cerebral blood flow in anesthetized cat suprasylvian gyrus at 0.3 mg/kg, iv
Format: functional, organism-based
Set-up: dose 0.3 mg/kg

C[n+]1c2n(c(=O)c3ccccc31)CCc1c-2[nH]c2ccccc12
Activity: Active
